Literature values as cited in patent US20250263624A1, “Environmentally friendly metal cutting oil with high load-bearing and high anti-wear properties” (Shenyang Peite Technology Co., Ltd, priority 2025, published 2025).

Water solubility: Insoluble
Compound: CC(C)CCCCCOC(=O)CCCCCCCCC(=O)OCCCCCC(C)C [diisooctyl sebacate]
